{"source": "patent US20240199535A1", "about": "“DEUTERATED DHODH INHIBITORS” (priority 2021, published 2024)", "key": {"SARS-CoV-2": {"system": "SARS-CoV-2", "assay": "Antiviral activity on SARS-CoV-2, viral replication (YFP) assay", "type": "cell-based", "conditions": "Severe acute respiratory syndrome coronavirus 2, read-out: EC50 range"}, "SARS-CoV-2 d6-YFP": {"system": "SARS-CoV-2 d6-YFP", "assay": "Combinatorial drug assessment with EIDD-1931, viral replication inhibition assay", "type": "cell-based"}, "in vitro [1]": {"assay": "in vitro", "conditions": "male, rat, microsomes"}, "in vivo [2]": {"assay": "in vivo", "conditions": "CC7BL/6J, mouse, po, 5 mg/kg", "experimental": "The pharmacokinetics of the compounds of the present invention was evaluated in 3 male and 3 female mice (CC7BL/6J, 8 week old) after oral cassette dosing. Dose was 5 mg/kg, application volume was 5 mL/kg and vehicle was 5% Solutol, 95% NaCl solution (at 0.9% saline concentration). At each designated time point (0, 0.25, 0.5, 1, 2, 4, 8 h after dosing), 20 μL whole blood were collected from the tail vein into Li-heparin tubes, frozen on dry ice within 1-2 minutes of sampling and stored at −20° C. until processed for LC-MS analysis."}, "in vivo [3]": {"assay": "in vivo", "conditions": "Han Wistar, rat", "experimental": "Rats are provided with a catheter in the jugular vein (2-3 days prior to blood sampling). At each designated time point (0, 1, 2, 4, 8 and 24 h after dosing), 100 μL blood were collected into Li-heparin tubes, stored on ice until centrifugation (10 minutes at 3000 g, 4° C.) and plasma was prepared within 45 min after collection, frozen at −20° C. and stored at this temperature until processed for LC-MS analysis."}, "in vitro [4]": {"assay": "in vitro", "conditions": "human, microsomes"}}, "note": "pEC50: −log10 of the molar value."}
{"smiles": "[2H]C([2H])([2H])Oc1cc(-c2cc(F)c(NC(=O)C3=C(C(=O)O)CCC3)c(F)c2)ccn1", "note": "[1/9]", "values": [{"measurement": "pEC50", "setting": "SARS-CoV-2", "result": "4.30 to 4.60"}]}
{"smiles": "[2H]C([2H])([2H])Oc1cccc(-c2ccc(NC(=O)C3=C(C(=O)O)CCC3)c3ccccc23)c1", "note": "[12/4]", "values": [{"measurement": "pEC50", "setting": "SARS-CoV-2", "result": "4.60 to 5.00"}]}
{"smiles": "[2H]C([2H])([2H])Oc1cccc(-c2ccc(NC(=O)C3=C(C(=O)O)CCC3)c3c2CCC3)c1", "note": "[Example 12/1]", "values": [{"measurement": "pEC50", "setting": "SARS-CoV-2", "result": "> 5.00"}]}
{"smiles": "[2H]C([2H])([2H])Oc1cccc(-c2cc(F)c(NC(=O)C3=C(C(=O)O)CCC3)c(F)c2)c1", "note": "[Example 9, 2-((3,5-Difluoro-3′-(methoxy-d3)-[1,1′-biphenyl]-4-yl)carbamoyl)cyclopent-1-ene-1-carboxylic Acid]", "values": [{"measurement": "pEC50", "setting": "SARS-CoV-2", "result": "4.60 to 5.00"}, {"measurement": "antiviral effect on SARS-CoV-2 in combination with nucleoside analogue EIDD-1931", "setting": "SARS-CoV-2 d6-YFP", "result": "synergistic antiviral effects"}]}
{"smiles": "[2H]C([2H])([2H])Oc1cccc(-c2c(F)c(F)c(NC(=O)C3=C(C(=O)O)CCC3)c(F)c2F)c1", "note": "[1/2]", "values": [{"measurement": "pEC50", "setting": "SARS-CoV-2", "result": "> 5.00"}]}
{"smiles": "COc1cccc(-c2ccc(NC(=O)C3=C(C(=O)O)CCC3)c(F)c2)c1", "note": "[Example C26, vidofludimus, reference compound]", "values": [{"measurement": "microsomal CLint", "setting": "in vitro [1]", "result": 8.48, "unit": "µL/min/mg"}, {"measurement": "AUC", "setting": "in vivo [2]; female", "result": 1970, "unit": "ng·h/mL"}, {"measurement": "Cmax", "setting": "in vivo [2]; female", "result": 745, "unit": "ng/mL"}, {"measurement": "half-life", "setting": "in vivo [2]; female", "result": 1.7, "unit": "h"}, {"measurement": "AUC", "setting": "in vivo [2]; male", "result": 1620, "unit": "ng·h/mL"}, {"measurement": "Cmax", "setting": "in vivo [2]; male", "result": 789, "unit": "ng/mL"}, {"measurement": "half-life", "setting": "in vivo [2]; male", "result": 1.7, "unit": "h"}, {"measurement": "% AUCextra", "setting": "in vivo [3]; female, iv, 1 mg/kg", "result": 12, "unit": "%"}, {"measurement": "AUC(0-inf)", "setting": "in vivo [3]; female, iv, 1 mg/kg", "result": 82900, "unit": "ng·h/mL"}, {"measurement": "AUC(0-t)", "setting": "in vivo [3]; female, iv, 1 mg/kg", "result": 68600, "unit": "ng·h/mL"}, {"measurement": "C0", "setting": "in vivo [3]; female, iv, 1 mg/kg", "result": 8130, "unit": "ng/mL"}, {"measurement": "Cz", "setting": "in vivo [3]; female, iv, 1 mg/kg", "result": 939, "unit": "ng/mL"}, {"measurement": "Vz/f", "setting": "in vivo [3]; female, iv, 1 mg/kg", "result": 0.016, "unit": "L/kg"}, {"measurement": "t1/2z", "setting": "in vivo [3]; female, iv, 1 mg/kg", "result": 9.7, "unit": "h"}, {"measurement": "tz", "setting": "in vivo [3]; female, iv, 1 mg/kg", "result": 24, "unit": "h"}, {"measurement": "bioavailability", "setting": "in vivo [3]; female, po", "result": 73.8, "unit": "%"}, {"measurement": "% AUCextra", "setting": "in vivo [3]; female, po, 5 mg/kg", "result": 17, "unit": "%"}, {"measurement": "AUC(0-inf)", "setting": "in vivo [3]; female, po, 5 mg/kg", "result": 297000, "unit": "ng·h/mL"}, {"measurement": "AUC(0-t)", "setting": "in vivo [3]; female, po, 5 mg/kg", "result": 253000, "unit": "ng·h/mL"}, {"measurement": "CL/F", "setting": "in vivo [3]; female, po, 5 mg/kg", "result": 3.7, "unit": "mL/min/kg"}, {"measurement": "Cmax", "setting": "in vivo [3]; female, po, 5 mg/kg", "result": 21300, "unit": "ng/mL"}, {"measurement": "Cz", "setting": "in vivo [3]; female, po, 5 mg/kg", "result": 3620, "unit": "ng/mL"}, {"measurement": "Tmax", "setting": "in vivo [3]; female, po, 5 mg/kg", "result": 2, "unit": "h"}, {"measurement": "Vd/F", "setting": "in vivo [3]; female, po, 5 mg/kg", "result": 0.016, "unit": "L/kg"}, {"measurement": "t1/2z", "setting": "in vivo [3]; female, po, 5 mg/kg", "result": 9.1, "unit": "h"}, {"measurement": "tz", "setting": "in vivo [3]; female, po, 5 mg/kg", "result": 24, "unit": "h"}, {"measurement": "% AUCextra", "setting": "in vivo [3]; male, iv, 1 mg/kg", "result": 22, "unit": "%"}, {"measurement": "AUC(0-inf)", "setting": "in vivo [3]; male, iv, 1 mg/kg", "result": 47900, "unit": "ng·h/mL"}, {"measurement": "AUC(0-t)", "setting": "in vivo [3]; male, iv, 1 mg/kg", "result": 43200, "unit": "ng·h/mL"}, {"measurement": "C0", "setting": "in vivo [3]; male, iv, 1 mg/kg", "result": 5790, "unit": "ng/mL"}, {"measurement": "Cz", "setting": "in vivo [3]; male, iv, 1 mg/kg", "result": 421, "unit": "ng/mL"}, {"measurement": "Vz/f", "setting": "in vivo [3]; male, iv, 1 mg/kg", "result": 0.009, "unit": "L/kg"}, {"measurement": "t1/2z", "setting": "in vivo [3]; male, iv, 1 mg/kg", "result": 7.3, "unit": "h"}, {"measurement": "tz", "setting": "in vivo [3]; male, iv, 1 mg/kg", "result": 24, "unit": "h"}, {"measurement": "bioavailability", "setting": "in vivo [3]; male, po", "result": 92.7, "unit": "%"}, {"measurement": "% AUCextra", "setting": "in vivo [3]; male, po, 5 mg/kg", "result": 25, "unit": "%"}, {"measurement": "AUC(0-inf)", "setting": "in vivo [3]; male, po, 5 mg/kg", "result": 206000, "unit": "ng·h/mL"}, {"measurement": "AUC(0-t)", "setting": "in vivo [3]; male, po, 5 mg/kg", "result": 200000, "unit": "ng·h/mL"}, {"measurement": "CL/F", "setting": "in vivo [3]; male, po, 5 mg/kg", "result": 3.72, "unit": "mL/min/kg"}, {"measurement": "Cmax", "setting": "in vivo [3]; male, po, 5 mg/kg", "result": 14900, "unit": "ng/mL"}, {"measurement": "Cz", "setting": "in vivo [3]; male, po, 5 mg/kg", "result": 1540, "unit": "ng/mL"}, {"measurement": "Tmax", "setting": "in vivo [3]; male, po, 5 mg/kg", "result": 2, "unit": "h"}, {"measurement": "Vd/F", "setting": "in vivo [3]; male, po, 5 mg/kg", "result": 0.007, "unit": "L/kg"}, {"measurement": "t1/2z", "setting": "in vivo [3]; male, po, 5 mg/kg", "result": 6.4, "unit": "h"}, {"measurement": "tz", "setting": "in vivo [3]; male, po, 5 mg/kg", "result": 24, "unit": "h"}, {"measurement": "microsomal CLint", "setting": "in vitro [4]; both", "result": 2.27, "unit": "µL/min/mg"}, {"measurement": "microsomal CLint", "setting": "in vitro [4]; female", "result": 6.58, "unit": "µL/min/mg"}, {"measurement": "microsomal CLint", "setting": "in vitro [4]; male", "result": 12.6, "unit": "µL/min/mg"}]}
{"smiles": "[2H]c1cc([2H])c(-c2c(F)c(F)c(NC(=O)C3=C(C(=O)O)CCC3)c(F)c2F)c([2H])c1OC(F)(F)F", "note": "[Example 3, 2-((2,3,5,6-Tetrafluoro-3′-(trifluoromethoxy)-[1,1′-biphenyl]-4-yl-2′,4′,6′-d3)carbamoyl)cyclopent-1-ene-1-carboxylic Acid]", "values": [{"measurement": "pEC50", "setting": "SARS-CoV-2", "result": "> 5.00"}]}
{"smiles": "[2H]C([2H])([2H])Oc1cccc(-c2cc(F)c(NC(=O)C3=C(C(=O)O)CCC3)c(F)c2)n1", "note": "[1/10]", "values": [{"measurement": "pEC50", "setting": "SARS-CoV-2", "result": "4.60 to 5.00"}]}
{"smiles": "[2H]c1c([2H])c(F)c([2H])c(-c2cc(F)c(NC(=O)C3=C(C(=O)O)CCC3)c(F)c2)c1[2H]", "note": "[1/7]", "values": [{"measurement": "pEC50", "setting": "SARS-CoV-2", "result": "> 5.00"}]}
